# Reference: ChEMBL document CHEMBL3797145, “Synthesis and evaluation of carbamate and aryl ether substituted pyrazinones as corticotropin releasing factor-1 (CRF₁) receptor antagonists” (Bioorg Med Chem Lett, 2016)
# Columns and labels:
# [1] = target: T1, Corticotropin-releasing factor receptor 1 (Rattus norvegicus, UniProt P35353); assay: Displacement of [125I]Tyr-ovine-CRF from CRF1 receptor in rat frontal cortex homogenate after 2 hrs by gamma counting analysis; format: tissue-based
# T1 sequence (P35353 whole entry): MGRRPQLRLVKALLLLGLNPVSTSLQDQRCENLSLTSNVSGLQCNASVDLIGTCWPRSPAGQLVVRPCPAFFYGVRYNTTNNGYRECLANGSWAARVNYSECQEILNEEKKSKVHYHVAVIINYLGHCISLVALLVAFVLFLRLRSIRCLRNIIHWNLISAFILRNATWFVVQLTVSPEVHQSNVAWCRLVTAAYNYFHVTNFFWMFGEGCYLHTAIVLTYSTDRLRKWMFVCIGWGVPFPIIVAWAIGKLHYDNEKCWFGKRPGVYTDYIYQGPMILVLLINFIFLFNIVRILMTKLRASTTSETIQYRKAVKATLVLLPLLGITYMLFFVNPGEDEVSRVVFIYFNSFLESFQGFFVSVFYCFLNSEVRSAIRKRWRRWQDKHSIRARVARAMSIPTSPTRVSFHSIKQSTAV
# [2] = Metabolic stability in human liver microsomes assessed as compound remaining after 10 mins; format: ADME; conditions: read-out: Stability
# [3] = Metabolic stability in rat liver microsomes assessed as compound remaining after 10 mins; format: ADME; conditions: read-out: Stability
# [4] = target: T2, Corticotropin-releasing factor receptor 1 (Homo sapiens) (UniProt P34998); assay: (§1) Antagonist activity at CRF1 receptor in human Y79 cells assessed as inhibition of CRF-stimulated cAMP production preincubated for 30 mins followed by CRF addition measured after 30 mins by HTRF assay; format: functional, cell-based
# T2 sequence (whole entry): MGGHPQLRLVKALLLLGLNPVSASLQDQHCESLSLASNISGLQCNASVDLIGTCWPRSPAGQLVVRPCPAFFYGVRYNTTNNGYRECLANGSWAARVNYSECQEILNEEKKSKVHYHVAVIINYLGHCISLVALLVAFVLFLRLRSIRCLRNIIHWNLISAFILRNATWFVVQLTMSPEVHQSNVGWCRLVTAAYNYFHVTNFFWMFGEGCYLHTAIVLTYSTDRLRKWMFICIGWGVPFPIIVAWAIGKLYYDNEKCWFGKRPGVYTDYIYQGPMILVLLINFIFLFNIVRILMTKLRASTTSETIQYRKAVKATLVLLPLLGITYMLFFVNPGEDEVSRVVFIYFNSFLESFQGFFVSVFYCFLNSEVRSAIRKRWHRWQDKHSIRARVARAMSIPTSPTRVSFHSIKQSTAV
# [5] = target: T3, Corticotropin-releasing factor receptor 1 (Homo sapiens, UniProt P34998); assay: as §1; format: functional, cell-based
# T3 sequence (P34998 whole entry): T2 sequence (whole entry)
IC50 [1] [nM],SMILES,other results
1.9,Cc1cc(Nc2nc(Cl)cn([C@H](COC(=O)Nc3cccnc3)C3CC3)c2=O)c(C)nc1OC(F)F,remaining at 10 min [2]: 71%; remaining at 10 min [3]: 52%
1.7,COc1nc(C)c(Nc2nc(Cl)cn([C@H](COC(=O)Nc3cc(Cl)cc(Cl)c3)C3CC3)c2=O)cc1C,–
88,COc1nc(C)c(Nc2nc(Cl)cn([C@H](CO)C3CC3)c2=O)cc1C,–
1.5,COc1nc(C)c(Nc2nc(Cl)cn([C@H](COC(=O)c3ccccc3)C3CC3)c2=O)cc1C,–
1.3,COc1nc(C)c(Nc2nc(Cl)cn([C@H](COC(=O)Nc3cccc(C#N)c3)C3CC3)c2=O)cc1C,–
–,Cc1cc(Nc2nc(Cl)cn([C@H](COC(=O)Nc3ccccc3)C3CC3)c2=O)c(C)nc1OC(F)F,inhibition [4]: Dose-dependent effect; IC50 [5]: 1.2 nM; remaining at 10 min [2]: 77%; remaining at 10 min [3]: 75%
10,COc1nc(C)c(Nc2nc(Cl)cn([C@H](COC(=O)Nc3cccnc3)C3CC3)c2=O)cc1C,remaining at 10 min [2]: 36%; remaining at 10 min [3]: 35%
14,CCNC(=O)OC[C@H](C1CC1)n1cc(Cl)nc(Nc2cc(C)c(OC)nc2C)c1=O,–
5.2,COc1nc(C)c(Nc2nc(Cl)cn([C@H](COC(=O)c3cccnc3)C3CC3)c2=O)cc1C,–
7.7,COc1nc(C)c(Nc2nc(Cl)cn([C@H](COc3ccc(C#N)cn3)C3CC3)c2=O)cc1C,–
5.3,COc1nc(C)c(Nc2nc(Cl)cn([C@H](COC(C)=O)C3CC3)c2=O)cc1C,–
6.7,COc1nc(C)c(Nc2nc(Cl)cn([C@H](COc3cccnc3)C3CC3)c2=O)cc1C,–
10,CCCNC(=O)OC[C@H](C1CC1)n1cc(Cl)nc(Nc2cc(C)c(OC)nc2C)c1=O,–
1.7,COc1nc(C)c(Nc2nc(Cl)cn([C@H](COC(=O)Nc3ccc(Cl)cc3Cl)C3CC3)c2=O)cc1C,–
4.9,COc1nc(C)c(Nc2nc(Cl)cn([C@H](COC(=O)c3ccncc3)C3CC3)c2=O)cc1C,–
67,COc1nc(C)c(Nc2nc(Cl)cn([C@H](COC(=O)c3ccccn3)C3CC3)c2=O)cc1C,–
1.2,COc1nc(C)c(Nc2nc(Cl)cn([C@H](COc3ccccn3)C3CC3)c2=O)cc1C,–
1.6,COc1nc(C)c(Nc2nc(Cl)cn([C@H](COC(=O)Nc3ccc(Cl)cc3)C3CC3)c2=O)cc1C,–
1.6,COc1nc(C)c(Nc2nc(Cl)cn([C@H](COc3ccc(C(F)(F)F)cn3)C3CC3)c2=O)cc1C,–
0.29,COC[C@H](C1CC1)n1cc(Cl)nc(Nc2cc(C)c(OC(F)F)nc2C)c1=O,–
1.5,COc1nc(C)c(Nc2nc(Cl)cn([C@H](COC(=O)Nc3ccccc3Cl)C3CC3)c2=O)cc1C,–
1.5,COc1nc(C)c(Nc2nc(Cl)cn([C@H](COc3cc(Br)ccn3)C3CC3)c2=O)cc1C,–
6.8,COc1nc(C)c(Nc2nc(Cl)cn([C@H](COc3cc(C#N)ccn3)C3CC3)c2=O)cc1C,–
1.5,COc1nc(C)c(Nc2nc(Cl)cn([C@H](COC(=O)Nc3ccccc3)C3CC3)c2=O)cc1C,remaining at 10 min [2]: 32%; remaining at 10 min [3]: 33%
9.2,COc1ccc(NC(=O)OC[C@H](C2CC2)n2cc(Cl)nc(Nc3cc(C)c(OC)nc3C)c2=O)c(C)n1,–
